Data taken from PubChem BioAssay AID248 (DTP/NCI, 2004).
Several values for one entry are separate records, joined by “and”; a condition that tells them apart may be missing. Identical values can stand only once. Inconclusive results and toxic doses are left out.

System: L1210 leukemia ip in BDF1 mice, survival T/C
Assay: NCI In Vivo Anticancer Drug Screen. Data for tumor model L1210 Leukemia (intraperitoneal) in B6D2F1 (BDF1) mice
Settings: higher = longer survival
How it was run: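 In this screen, tumor-bearing mice given compound are compared to those given vehicle, and their survival values are reported as a treated-to-control quotient.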

[1] = endpoint: mean survival time, dose: 100.0 mg/kg/injection, schedule: Q01DX001 (ip), vehicle: saline
[2] = endpoint: mean survival time, dose: 200.0 mg/kg/injection, schedule: Q01DX001 (ip), vehicle: saline
[3] = endpoint: mean survival time, dose: 400.0 mg/kg/injection, schedule: Q01DX001 (ip), vehicle: saline

## CC[n+]1ccc(Nc2ccc(NC(=O)c3ccc(Nc4cc[n+](CC)c5ccc(N)cc45)cc3)cc2)cc1
endpoint: mean survival time, dose: 0.12 mg/kg/injection, schedule: Q01DX005 (iv), vehicle: water
  T/C: 101 % of control
endpoint: mean survival time, dose: 0.12 mg/kg/injection, schedule: Q04DX003 (iv), vehicle: water
  T/C: 105 % of control
endpoint: mean survival time, dose: 0.25 mg/kg/injection, schedule: Q01DX005 (iv), vehicle: water
  T/C: 105 % of control
endpoint: mean survival time, dose: 0.25 mg/kg/injection, schedule: Q03HX024 (ip), vehicle: water
  T/C: 113 % of control
endpoint: mean survival time, dose: 0.25 mg/kg/injection, schedule: Q04DX003 (iv), vehicle: water
  T/C: 102 % of control
endpoint: mean survival time, dose: 0.5 mg/kg/injection, schedule: Q01DX005 (iv), vehicle: water
  T/C: 100 % of control and 103 % of control
endpoint: mean survival time, dose: 0.5 mg/kg/injection, schedule: Q01DX009 (sc), vehicle: water
  T/C: 94 % of control
endpoint: mean survival time, dose: 0.5 mg/kg/injection, schedule: Q03HX024 (ip), vehicle: water
  T/C: 157 % of control
endpoint: mean survival time, dose: 0.5 mg/kg/injection, schedule: Q03HX024 (oral), vehicle: water
  T/C: 97 % of control
endpoint: mean survival time, dose: 0.5 mg/kg/injection, schedule: Q04DX003 (iv), vehicle: water
  T/C: 101 % of control
endpoint: mean survival time, dose: 0.75 mg/kg/injection, schedule: Q01DX009 (ip), vehicle: saline
  T/C: 152 % of control and 201 % of control
endpoint: mean survival time, dose: 1.0 mg/kg/injection, schedule: Q01DX005 (iv), vehicle: water
  T/C: 115 % of control
endpoint: mean survival time, dose: 1.0 mg/kg/injection, schedule: Q01DX009 (ip), vehicle: water
  T/C: 180 % of control and 211 % of control
endpoint: mean survival time, dose: 1.0 mg/kg/injection, schedule: Q01DX009 (oral), vehicle: water
  T/C: 103 % of control
endpoint: mean survival time, dose: 1.0 mg/kg/injection, schedule: Q01DX009 (sc), vehicle: water
  T/C: 112 % of control and 122 % of control
endpoint: mean survival time, dose: 1.0 mg/kg/injection, schedule: Q03HX016 (ip), vehicle: water
  T/C: 156 % of control
endpoint: mean survival time, dose: 1.0 mg/kg/injection, schedule: Q03HX024 (ip), vehicle: water
  T/C: 186 % of control and 187 % of control and 208 % of control
endpoint: mean survival time, dose: 1.0 mg/kg/injection, schedule: Q03HX024 (oral), vehicle: water
  T/C: 96 % of control and 101 % of control
endpoint: mean survival time, dose: 1.0 mg/kg/injection, schedule: Q03HX024 (sc), vehicle: water
  T/C: 164 % of control
endpoint: mean survival time, dose: 1.0 mg/kg/injection, schedule: Q04DX003 (iv), vehicle: water
  T/C: 103 % of control
endpoint: mean survival time, dose: 1.5 mg/kg/injection, schedule: Q01DX009 (ip), vehicle: saline
  T/C: 160 % of control and 171 % of control
endpoint: mean survival time, dose: 1.9 mg/kg/injection, schedule: Q01DX009 (ip), vehicle: saline
  T/C: 281 % of control
endpoint: mean survival time, dose: 2.0 mg/kg/injection, schedule: Q01DX005 (iv), vehicle: water
  T/C: 103 % of control
endpoint: mean survival time, dose: 2.0 mg/kg/injection, schedule: Q01DX009 (oral), vehicle: water
  T/C: 103 % of control
endpoint: mean survival time, dose: 2.0 mg/kg/injection, schedule: Q01DX009 (sc), vehicle: water
  T/C: 189 % of control and 206 % of control
endpoint: mean survival time, dose: 2.0 mg/kg/injection, schedule: Q03HX016 (ip), vehicle: water
  T/C: 188 % of control
endpoint: mean survival time, dose: 2.0 mg/kg/injection, schedule: Q03HX024 (ip), vehicle: water
  T/C: 123 % of control and 218 % of control
endpoint: mean survival time, dose: 2.0 mg/kg/injection, schedule: Q03HX024 (oral), vehicle: water
  T/C: 97 % of control and 100 % of control
endpoint: mean survival time, dose: 2.0 mg/kg/injection, schedule: Q03HX024 (sc), vehicle: water
  T/C: 211 % of control
endpoint: mean survival time, dose: 2.0 mg/kg/injection, schedule: Q04DX003 (ip), vehicle: water
  T/C: 113 % of control and 120 % of control
endpoint: mean survival time, dose: 2.0 mg/kg/injection, schedule: Q04DX003 (iv), vehicle: water
  T/C: 105 % of control
endpoint: mean survival time, dose: 3.0 mg/kg/injection, schedule: Q01DX009 (ip), vehicle: saline
  T/C: 274 % of control
endpoint: mean survival time, dose: 3.2 mg/kg/injection, schedule: Q01DX009 (ip), vehicle: saline
  T/C: 313 % of control
endpoint: mean survival time, dose: 4.0 mg/kg/injection, schedule: Q01DX001 (ip), vehicle: water
  T/C: 111 % of control
endpoint: mean survival time, dose: 4.0 mg/kg/injection, schedule: Q01DX009 (oral), vehicle: water
  T/C: 96 % of control
endpoint: mean survival time, dose: 4.0 mg/kg/injection, schedule: Q01DX009 (sc), vehicle: water
  T/C: 116 % of control and 219 % of control
endpoint: mean survival time, dose: 4.0 mg/kg/injection, schedule: Q03HX016 (ip), vehicle: water
  T/C: 271 % of control
endpoint: mean survival time, dose: 4.0 mg/kg/injection, schedule: Q03HX024 (ip), vehicle: water
  T/C: 112 % of control
endpoint: mean survival time, dose: 4.0 mg/kg/injection, schedule: Q03HX024 (oral), vehicle: water
  T/C: 100 % of control and 101 % of control
endpoint: mean survival time, dose: 4.0 mg/kg/injection, schedule: Q08DX002 (ip), vehicle: water
  T/C: 107 % of control
endpoint: mean survival time, dose: 4.0 mg/kg/injection, schedule: Q08DX002 (oral), vehicle: water
  T/C: 101 % of control
endpoint: mean survival time, dose: 5.0 mg/kg/injection, schedule: Q01DX009 (oral), vehicle: water
  T/C: 103 % of control
endpoint: mean survival time, dose: 6.0 mg/kg/injection, schedule: Q01DX009 (ip), vehicle: saline
  T/C: 271 % of control
endpoint: mean survival time, dose: 8.0 mg/kg/injection, schedule: Q01DX009 (ip), vehicle: water
  T/C: 96 % of control
endpoint: mean survival time, dose: 8.0 mg/kg/injection, schedule: Q01DX009 (oral), vehicle: water
  T/C: 104 % of control (2×) and 107 % of control
endpoint: mean survival time, dose: 8.0 mg/kg/injection, schedule: Q01DX009 (sc), vehicle: water
  T/C: 101 % of control and 117 % of control
endpoint: mean survival time, dose: 8.0 mg/kg/injection, schedule: Q03HX024 (oral), vehicle: water
  T/C: 106 % of control
endpoint: mean survival time, dose: 8.0 mg/kg/injection, schedule: Q03HX024 (sc), vehicle: water
  T/C: 104 % of control
endpoint: mean survival time, dose: 8.0 mg/kg/injection, schedule: Q04DX003 (ip), vehicle: water
  T/C: 160 % of control and 164 % of control and 175 % of control
endpoint: mean survival time, dose: 9.0 mg/kg/injection, schedule: Q01DX009 (ip), vehicle: saline
  T/C: 109 % of control
endpoint: mean survival time, dose: 10.0 mg/kg/injection, schedule: Q01DX009 (oral), vehicle: water
  T/C: 103 % of control
endpoint: mean survival time, dose: 16.0 mg/kg/injection, schedule: Q01DX009 (ip), vehicle: water
  T/C: 94 % of control
endpoint: mean survival time, dose: 16.0 mg/kg/injection, schedule: Q01DX009 (oral), vehicle: water
  T/C: 101 % of control
endpoint: mean survival time, dose: 16.0 mg/kg/injection, schedule: Q04DX003 (ip), vehicle: water
  T/C: 177 % of control and 190 % of control and 245 % of control
endpoint: mean survival time, dose: 18.0 mg/kg/injection, schedule: Q01DX001 (ip), vehicle: saline
  T/C: 157 % of control
endpoint: mean survival time, dose: 20.0 mg/kg/injection, schedule: Q01DX009 (oral), vehicle: water
  T/C: 100 % of control
endpoint: mean survival time, dose: 25.0 mg/kg/injection, schedule: Q01DX001 (ip), vehicle: saline
  T/C: 120 % of control
endpoint: mean survival time, dose: 32.0 mg/kg/injection, schedule: Q01DX009 (oral), vehicle: water
  T/C: 103 % of control and 111 % of control
endpoint: mean survival time, dose: 32.0 mg/kg/injection, schedule: Q03HX008 (ip), vehicle: water
  T/C: 190 % of control
endpoint: mean survival time, dose: 40.0 mg/kg/injection, schedule: Q01DX009 (oral), vehicle: water
  T/C: 105 % of control
endpoint: mean survival time, dose: 64.0 mg/kg/injection, schedule: Q01DX009 (oral), vehicle: water
  T/C: 100 % of control and 102 % of control
endpoint: mean survival time, dose: 80.0 mg/kg/injection, schedule: Q01DX009 (oral), vehicle: water
  T/C: 110 % of control
endpoint: median survival time, dose: 0.5 mg/kg/injection, schedule: Q03HX024 (ip), vehicle: water
  T/C: 120 % of control and 122 % of control
endpoint: median survival time, dose: 1.3 mg/kg/injection, schedule: Q03HX024 (ip), vehicle: water
  T/C: 190 % of control and 191 % of control
endpoint: median survival time, dose: 2.2 mg/kg/injection, schedule: Q01DX009 (ip), vehicle: water
  T/C: 195 % of control and 198 % of control
endpoint: median survival time, dose: 2.2 mg/kg/injection, schedule: Q03HX024 (ip), vehicle: water
  T/C: 235 % of control and 247 % of control
endpoint: median survival time, dose: 3.6 mg/kg/injection, schedule: Q01DX009 (ip), vehicle: water
  T/C: 225 % of control and 227 % of control
endpoint: median survival time, dose: 6.0 mg/kg/injection, schedule: Q01DX009 (ip), vehicle: water
  T/C: 170 % of control and 172 % of control
endpoint: median survival time, dose: 10.0 mg/kg/injection, schedule: Q01DX009 (ip), vehicle: water
  T/C: 120 % of control and 122 % of control

## O=C1NC(=O)C(=Cc2ccc(N(CCCl)CCCl)cc2)C(=O)N1
endpoint: mean survival time, dose: 100.0 mg/kg/injection, schedule: Q01DX Z (ip), vehicle: methylcellulose (MC)
  T/C: 102 % of control
endpoint: mean survival time, dose: 200.0 mg/kg/injection, schedule: Q01DX Z (ip), vehicle: methylcellulose (MC)
  T/C: 121 % of control

## CN1C(=O)C(Br)C(C)(Br)c2ccccc21 (stereo unspecified)
[1]
  T/C: 93 % of control
[2]
  T/C: 101 % of control
[3]
  T/C: 92 % of control

## O=C1NCCc2cc3c(cc21)OCO3
endpoint: mean survival time, dose: 25.0 mg/kg/injection, schedule: Q04DX002 (ip), vehicle: saline
  T/C: 97 % of control
endpoint: mean survival time, dose: 50.0 mg/kg/injection, schedule: Q04DX002 (ip), vehicle: saline
  T/C: 106 % of control
endpoint: mean survival time, dose: 100.0 mg/kg/injection, schedule: Q04DX002 (ip), vehicle: saline
  T/C: 103 % of control

## CCC(C(=O)O)C(C)(C)O (stereo unspecified)
[1]
  T/C: 93 % of control
[2]
  T/C: 93 % of control
[3]
  T/C: 103 % of control

## CCOC(=O)NNC(=S)NCc1ccccc1
endpoint: mean survival time, dose: 100.0 mg/kg/injection, schedule: Q01DX009 (ip), vehicle: Klucel (hydroxypropylcellulose) (HPC)
  T/C: 102 % of control
endpoint: mean survival time, dose: 200.0 mg/kg/injection, schedule: Q01DX009 (ip), vehicle: Klucel (hydroxypropylcellulose) (HPC)
  T/C: 98 % of control

## O=C(O)CC1=C(O)c2ccccc2C(=O)C1=O
endpoint: mean survival time, dose: 100.0 mg/kg/injection, schedule: Q01DX001 (ip), vehicle: water
  T/C: 97 % of control
endpoint: mean survival time, dose: 200.0 mg/kg/injection, schedule: Q01DX001 (ip), vehicle: water
  T/C: 103 % of control
endpoint: mean survival time, dose: 400.0 mg/kg/injection, schedule: Q01DX001 (ip), vehicle: water
  T/C: 97 % of control

## O=c1ccc2nc3ccccc3sc-2c1
endpoint: mean survival time, dose: 100.0 mg/kg/injection, schedule: Q04DX003 (ip), vehicle: saline with Tween-80
  T/C: 89 % of control
